Experimental data reported in article PMC2883770 (Journal of natural products, 2009).

Legend:
[1] = tested on: HT-29 human colon cancer cells; assay: Cytotoxicity assay against HT-29 cells; format: cell-based
[2] = tested on: MCF-7 human breast cancer cells; assay: Cytotoxicity assay against MCF-7 cells; format: cell-based
HT-29 cells = assay: Mitochondrial transmembrane potential; format: cell-based, human; conditions: 2 h treatment, JC-1 dye

| SMILES | ED50 against HT-29 cells [1] | ED50 against MCF-7 cells [2] | ED50 in mitochondrial transmembrane potential assay (HT-29 cells) |
| --- | --- | --- | --- |
| CC(=O)O[C@@H]([C@H]1C[C@@H]1C(=O)C(C)OC(=O)/C=C/c1ccc(O)cc1)[C@H]1CC=CC(=O)O1 (stereo partly drawn) [Compound 1, Brevipolide A] | 5.8 µM | > 10 µM |  |
| CC(=O)O[C@@H]([C@H]1C[C@@H]1C(=O)C(C)OC(=O)/C=C\c1ccc(O)cc1)[C@H]1CC=CC(=O)O1 (stereo partly drawn) [Compound 2, Brevipolide B] | 6.1 µM | 6.1 µM |  |
| CC(OC(=O)/C=C/c1ccc(O)c(O)c1)C(=O)[C@H]1C[C@@H]1[C@H](O)[C@H]1CC=CC(=O)O1 (stereo partly drawn) [Compound 3, Brevipolide C] |  |  | 0.0085 µM |
| CC(OC(=O)/C=C\c1ccc(O)cc1)C(=O)[C@H]1C[C@@H]1[C@H](O)[C@H]1CC=CC(=O)O1 (stereo partly drawn) [Compound 6, Brevipolide F] | 7.5 µM | 6.7 µM |  |
| COc1ccc(-c2oc3cc(OC)c(O)c(O)c3c(=O)c2OC)cc1O [Compound 8, 5,6,3′-trihydroxy-3,7,4′-trimethoxyflavone] | 3.6 µM |  | 0.31 µM |
